Reference: US20240023534A1, “Devices, Compositions and Methods for Insect Control” (Agriculture Victoria Services PTY LTD, priority 2020, published 2024)
“Also recorded” adds a separate entry of the source.

Columns and labels:
C. davidsoni [1] = assay: GC-EAD of beetle antennae to Pichia kluyveri headspace volatiles; settings: female and male adults, P. kluyveri headspace volatiles
Text: FIG. 6. GC-EAD responses of female (♀) and male (♂) C. davidsoni adults to headspace volatiles (black, FID chromatogram) of the fruit yeast Pichia kluyveri. […] IS=Internal standard, IS1=n-octane, IS2=Nonyl acetate.

[2] = Gravimetric release rate and longevity of lure constituents in LDPE sachets; format: physicochemical; settings: for Est. long. / Release rate: compound on wick in LDPE sachet, thickness, size, load per Table 1
Protocol: The release rates of co-attractant components formulated in low density polyethylene (LDPE) sachets were investigated (FIG. 1).
The release rate and theoretical longevity of the lure constituents in sachets were tested in gravimetric experiments. Data were used to determine the optimal sachet thickness, size (surface area) and estimated longevity of individual components (FIG. 2).
A fixed volume (1 ml) of each lure constituent was individually loaded in 50 cm 2 of different thicknesses (50, 100, 150 and 200 μm). Sachets were weighed daily for the first 5 days and later at greater time intervals. Release rates of the compounds through different sachet thicknesses were inferred using sachet weight loss over time (FIG. 2). Only the linear part of the weight loss curve was considered in the calculations of release rates. The maximum estimated longevity was deduced from the calculated release rate and corrected based on adjusted sachet size and volume of chemical loaded.

[3] = Release of compounds from the commercial co-attractant solution; format: physicochemical; settings: for Release rate (commercial solution): compound in commercial co-attractant solution; for duration of release in the current solution: current co-attractant solution
[4] = Sachet size, thickness, release rate and lure longevity studies (Table 3, based on GC-MS analysis); format: physicochemical; settings: for Est. long. / Release rate: LDPE sachet per Table 3, based on GC-MS analysis
Protocol: Studies determining optimal sachet size and thickness, lure concentration, release rates and lure longevity were performed as described in Table 3.

Carpophilus truncatus = assay: Cage dual-choice bioassay, co-attractant with one ingredient suppressed; format: in vivo; settings: for attractiveness of commercial co-attractant in the absence of the compound / role of the compound: test solution lacking one ingredient vs CL in 45% ethanol, fifty beetles
Protocol: FIG. 9. Boxplots representing the results of lab-conducted cage dual-choice assays on Carpophilus truncatus responses to odours. Between 50 and 100 beetles were simultaneously exposed to a solution of co-attractant […] one ingredient at a time was suppressed (treatments). The attraction index was calculated as follows: (number of beetles in test solution−number of beetles in control)/(total number of beetles). […] Line in the boxplots correspond to the median, top and bottom of the boxplots represent the 75th and 25th percentiles respectively while error bars depict the 5th and 95th percentiles. White dots are outliers. n correspond to the replication of each experiments. p values result from paired t-tests and stars indicate the level of statistical significance.
Fifty beetles were simultaneously exposed to a solution of co-attractant (control) and a solution of co-attractant from which one additive at a time was suppressed (treatments, see table 4). The attraction index was calculated as follows: (number of beetles in test solution—number of beetles in control)/(total number of beetles).

C. davidsoni [5] = assay: Field trial of synthetic blends in peach orchard (Example 6); format: in vivo; settings: CL+2PA, CL+IA, CL+IA+2PA vs CL; five weeks, N=6
Text: C. davidsoni catches using prototype co-attractant solutions in a stone fruit orchard (Shepparton, VIC). CL corresponds to the control (original Carpophilus Lure co-attractant), CL+IA (co-attractant+Isopentyl Acetate), CL+PA (co-attractant+2-Phenethyl acetate) and CL+IA+PA (co-attractant+Isopentyl Acetate+2-Phenethyl acetate). […] Number of replicates per treatment N=6.
Synthetic blends consisting of the combination of the existing carpophilus lure with two new potential yeast attractants; namely Isopentyl acetate and 2-phenylethyl acetate; were formulated based on their respective ratio to ethyl acetate (Table 2) and tested in the field.
Field trials were conducted in a peach orchard in Invergordon (Victoria). Treatments included the original carpophilus lure (CL: control), the original lure combined with Isopentyl acetate (CL+IA) or with 2-phenylethylacetate (CL+2PA) or both (CL+IA+2PA). Six replicates of each odour blend were placed in black funnel traps held on pickets at 1.5 m height, arranged in randomized transects. Beetles were collected and synthetic blends replaced weekly over a 5-week period.
These compounds were tested either separately or together in the existing Carpophilus co-attractant and compared with the original co-attractant in the field. The trial was conducted over a five week period during which the beetles were collected and the lure solutions renewed weekly.

C. truncatus = assay: GC-EAD responses to W. rabaulensis odour; settings: W. rabaulensis headspace odour
Protocol: FIG. 10. […] 1-Acetaldehyde. 2-Ethanol. 3-Isobutanol. 4-Isopentyl alcohol. 5-2-Methyl butanol. 6-Isobutyl acetate. 7-Isopentyl acetate.
As co-attractants are derived from microbial odours, beetle attraction towards yeast odours isolated from the insect's gut was tested (Farrukh Baig, PhD thesis, 2020). […] Synthetic blends of the yeast odours were developed and field tested.

SMILES | GC-EAD antennal response (C. davidsoni [1]) | Est. long. [2] | Release rate [2] | Release rate (commercial solution) [3] | Est. long. [4] | Release rate [4] | attractiveness of commercial co-attractant in the absence of the compound / role of the compound (Carpophilus truncatus) | further results
CC(=O)OCc1ccco1 [2-furanmethanol acetate] | consistent physiological responses |  |  |  |  |  |  | 
CCC(C)CO (stereo not shown) [2-methyl-butanol] | consistent physiological responses | 200+ days | 4.3 mg/day | 0.6 mg/day | 200+ days | 4.3 mg/day | significantly more attractive | 
CC(=O)OCCc1ccccc1 [2-phenylethylacetate] | consistent physiological responses |  |  |  | 70+ days | 28 mg/day |  | longevity in sachets ([4]; dispensed in sachets): over 70 days; GC-EAD antennal response (C. davidsoni [1]; listed as 2-phenethyl acetate): strong sensitivity; effect on beetle capture of adding the compound to the original co-attractant (CL) (C. davidsoni [5]): significantly more beetles
CCC(=O)OCCc1ccccc1 [2-phenylethylpropionate] | consistent physiological responses |  |  |  |  |  |  | 
CCCCOC(C)=O [Butyl acetate] | consistent physiological responses |  |  |  |  |  |  | 
CCCCCCCC(=O)OCC [Ethyl octanoate] | consistent physiological responses |  |  |  |  |  |  | 
CC(=O)OCC(C)C [Isobutyl acetate] | consistent physiological responses |  |  |  |  |  |  | antennal responses (GC-EAD) (C. truncatus): strong antennal responses
CC(C)CO [Isobutyl alcohol] | consistent physiological responses | 200+ days | 4.9 mg/day | 2.9 mg/day | 200+ days | 4.9 mg/day | seem to not influence | 
CC(=O)OCCC(C)C [Isopentyl acetate] | consistent physiological responses; also recorded: strong sensitivity |  |  |  |  |  |  | effect on beetle capture of adding the compound to the original co-attractant (CL) (C. davidsoni [5]): reduce lure attractiveness; antennal responses (GC-EAD) (C. truncatus): strong antennal responses
CC(C)CCO [Isopentyl alcohol] | consistent physiological responses | 300 days | 3.4 mg/day | 3.3 mg/day | 300 days | 3.4 mg/day | significantly less attractive | effect of increased concentrations on lure efficacy (Carpophilus truncatus; further cage bioassay experiments): increase in lure efficacy
CC(=O)OCc1ccccc1 [Phenylmethyl acetate] | consistent physiological responses |  |  |  |  |  |  | 
CCCOC(C)=O [Propyl acetate] | consistent physiological responses |  |  |  |  |  |  | 
CC=O [acetaldehyde] |  | 7 days | 50 mg/day | 43 mg/day | 40 days | 50 mg/day | tend to act as an attractant | duration of release when applied in sachets ([2]; LDPE sachets): 1 week; duration of release in the current solution [3]: 1 days
CCO [ethanol] |  |  |  |  |  |  | significantly less attractive | permeation through the LDPE layers ([2]; LDPE sachets): limited permeation; maximum release rate achievable with thin sachets ([2]; thin LDPE sachets, lab experiments): ~25 mg/day; ethanol emission rates in the commercial lure ([3]; commercial lure): 2.5 g/day
CCOC(C)=O [ethyl acetate] | consistent physiological responses | 15 days | 136 mg/day | 110 mg/day | 15 days | 136 mg/day | seem to not influence | duration of release when applied in sachets ([2]; LDPE sachets): 1 week; duration of release in the current solution [3]: 1 days
CCC1CCC(=O)O1 (stereo not shown) [γ-caprolactone] | consistent physiological responses |  |  |  |  |  |  | 
